Results as given in ChEMBL document CHEMBL4270495, “Oleanane-, ursane-, and quinone methide friedelane-type triterpenoid derivatives: Recent advances in cancer treatment” (Eur J Med Chem, 2017).

Tests used:
MDA-MB-231 = assay: Cytotoxicity in human MDA-MB-231 cells assessed as reduction in cell viability incubated for 24 hrs by MTT assay; assay type: functional, cell-based; conditions: MDA-MB-231, 24 h
HL-60 = assay: Cytotoxicity in human HL60 cells assessed as reduction in cell viability incubated for 24 hrs by MTT assay; assay type: functional, cell-based; conditions: HL-60, 24 h
HL60/ADR = assay: Cytotoxicity in human HL60/ADR cells assessed as reduction in cell viability incubated for 24 hrs by MTT assay; assay type: functional, cell-based
HepG2 [1] = assay: Cytotoxicity in human HepG2 cells assessed as reduction in cell viability incubated for 72 hrs by CCK8 assay; assay type: functional, cell-based; conditions: HepG2, 72 h
A549 [2] = assay: Cytotoxicity in human A549 cells assessed as reduction in cell viability incubated for 72 hrs by CCK8 assay; assay type: functional, cell-based; conditions: A549, 72 h
HeLa [3] = assay: Cytotoxicity in human HeLa cells assessed as reduction in cell viability incubated for 72 hrs by CCK8 assay; assay type: functional, cell-based
PC-3 = assay: Cytotoxicity in human PC3 cells assessed as reduction in cell viability incubated for 72 hrs by CCK8 assay; assay type: functional, cell-based; conditions: PC-3, 72 h
MCF7 [4] = assay: Cytotoxicity in human MCF7 cells assessed as reduction in cell viability incubated for 24 hrs by MTT assay; assay type: functional, cell-based; conditions: MCF7, 24 h
A549 [5] = assay: Cytotoxicity in human A549 cells assessed as reduction in cell viability incubated for 24 hrs by MTT assay; assay type: functional, cell-based; conditions: A549, 24 h
A549 [6] = assay: Cytotoxicity in human A549 cells assessed as reduction in cell viability incubated for 48 hrs by MTT assay; assay type: functional, cell-based; conditions: A549, 48 h
T-24 = assay: Cytotoxicity in human T24 cells assessed as reduction in cell viability incubated for 48 hrs by MTT assay; assay type: functional, cell-based; conditions: T-24, 48 h
[7] = Cytotoxicity in human SPCA2 cells assessed as reduction in cell viability incubated for 48 hrs by MTT assay; assay type: functional, cell-based; conditions: SPCA2, 48 h
HUVEC = assay: Cytotoxicity in HUVEC cells assessed as reduction in cell viability incubated for 48 hrs by MTT assay; assay type: cell-based; conditions: Homo sapiens
SGC-7901 = assay: Cytotoxicity in human SGC7901 cells assessed as reduction in cell viability incubated for 48 hrs by MTT assay; assay type: functional, cell-based; conditions: SGC-7901, 48 h
HepG2 [8] = assay: Cytotoxicity in human HepG2 cells assessed as reduction in cell viability incubated for 48 hrs by MTT assay; assay type: functional, cell-based; conditions: HepG2, 48 h
HeLa [9] = assay: Cytotoxicity in human HeLa cells assessed as reduction in cell viability incubated for 48 hrs by MTT assay; assay type: functional, cell-based
HepG2 [10] = assay: Cytotoxicity in human HepG2 cells assessed as reduction in cell viability incubated for 24 hrs by MTT assay; assay type: functional, cell-based; conditions: HepG2, 24 h
MCF7 [11] = assay: Cytotoxicity in human MCF7 cells assessed as reduction in cell viability; assay type: functional, cell-based
MCF7 [12] = assay: Cytotoxicity in human MCF7 cells assessed as reduction in cell viability incubated for 72 hrs by CCK8 assay; assay type: functional, cell-based; conditions: MCF7, 72 h
A-375 = assay: Cytotoxicity in human A375 cells assessed as reduction in cell viability incubated for 24 hrs by MTT assay; assay type: functional, cell-based; conditions: A-375, 24 h
NCI-H446 = assay: Cytotoxicity in human NCI-H446 cells assessed as reduction in cell viability incubated for 24 hrs by MTT assay; assay type: functional, cell-based; conditions: NCI-H446, 24 h
HeLa [13] = assay: Cytotoxicity in human HeLa cells assessed as reduction in cell viability incubated for 72 hrs by MTT assay; assay type: functional, cell-based
HT-29 = assay: Cytotoxicity in human HT-29 cells assessed as reduction in cell viability incubated for 72 hrs by MTT assay; assay type: functional, cell-based; conditions: HT-29, 72 h
MCF7 [14] = assay: Cytotoxicity in human MCF7 cells assessed as reduction in cell viability incubated for 72 hrs by MTT assay; assay type: functional, cell-based; conditions: MCF7, 72 h
RAW264.7 = assay: Anti-inflammatory activity in mouse RAW264.7 cells assessed as inhibition of nitric oxide production; assay type: functional, cell-based

COC(=O)[C@]12CCC(C)(C)C[C@H]1C1=CC(=O)[C@@H]3[C@@]4(C)CCC(=O)C(C)(C)[C@@H]4CC[C@@]3(C)[C@]1(C)CC2
IC50 (MDA-MB-231): 33.2 µM
IC50 (HL-60): 2850 nM
IC50 (HL60/ADR): 7.54 µM

CC(=O)OC[C@@]1(C)[C@@H]2CC[C@]3(C)[C@H](CC=C4[C@@H]5[C@@H](C)[C@H](C)CC[C@]5(C(=O)O)CC[C@]43C)[C@@]2(C)C[C@@H](OC(C)=O)[C@@H]1OC(C)=O
IC50 (HepG2 [1]): 10.2 µM
IC50 (A549 [2]): 21.1 µM
IC50 (HeLa [3]): 24.2 µM
IC50 (PC-3): 17.5 µM

CC1(C)CC[C@]2(C(=O)O)CC[C@]3(C)C(=CC[C@@H]4[C@@]5(C)CC[C@H](O[C@@H]6OC[C@H](O[C@@H]7OC[C@H](O)[C@H](O)[C@H]7O)[C@H](O[C@H]7O[C@H](CO)[C@@H](O)[C@H](O)[C@@H]7O)[C@H]6O)[C@@](C)(CO)[C@@H]5CC[C@]43C)[C@H]2C1
IC50 (MCF7 [4]): > 50 µM
IC50 (A549 [5]): 17.9 µM

CCOP(=O)(OCC)C(NC(=O)[C@]12CC[C@@H](C)[C@H](C)[C@H]1C1=CC[C@@H]3[C@@]4(C)C[C@@H](OC(C)=O)[C@H](OC(C)=O)[C@@](C)(COC(C)=O)[C@@H]4CC[C@@]3(C)[C@]1(C)CC2)c1ccc(Cl)cc1 (stereo partly drawn)
IC50 (A549 [6]): 15.7 µM
IC50 (T-24): 8.93 µM
IC50 [7]: 16.1 µM
IC50 (HUVEC): > 100 µM

C[C@@H]1CC[C@]2(C(=O)OCC(=O)N/N=C/c3ccc(Cl)cc3)CC[C@]3(C)C(=CC(=O)[C@@H]4[C@@]5(C)CC[C@H](O)[C@](C)(CO)[C@@H]5CC[C@]43C)[C@@H]2[C@]1(C)O
IC50 (SGC-7901): > 100 µM
IC50 (HepG2 [8]): > 100 µM
IC50 (HeLa [9]): > 100 µM

C[C@H]1[C@H](C)CC[C@]2(C(N)=O)CC[C@]3(C)C(=CC[C@@H]4[C@@]5(C)CC[C@H](OC(=O)CCC(=O)O)C(C)(C)[C@@H]5CC[C@]43C)[C@H]12
IC50 (HepG2 [10]): 9.1 µM
IC50 (MCF7 [11]): 44.6 µM

CCOP(=O)(OCC)C(NC(=O)[C@]12CC[C@@H](C)[C@H](C)[C@H]1C1=CC[C@@H]3[C@@]4(C)C[C@@H](OC(C)=O)[C@H](OC(C)=O)[C@@](C)(COC(C)=O)[C@@H]4CC[C@@]3(C)[C@]1(C)CC2)c1ccc2ccccc2c1 (stereo partly drawn)
IC50 (A549 [6]): 46.3 µM
IC50 (T-24): 49.1 µM
IC50 [7]: 48.7 µM
IC50 (HUVEC): > 100 µM

COC(=O)C(C)NC(=O)[C@]12CC[C@@H](C)[C@H](C)[C@H]1C1=CC[C@@H]3[C@@]4(C)C[C@@H](O)[C@H](O)[C@@](C)(CO)[C@@H]4CC[C@@]3(C)[C@]1(C)CC2 (stereo partly drawn)
IC50 (HepG2 [1]): 20.5 µM
IC50 (A549 [2]): 21.8 µM
IC50 (MCF7 [12]): 17.1 µM
IC50 (HeLa [3]): 19.2 µM

C[C@H]1[C@H](C)CC[C@]2(C(N)=O)CC[C@]3(C)C(=CC[C@@H]4[C@@]5(C)CC[C@H](OC(=O)c6ccccc6)C(C)(C)[C@@H]5CC[C@]43C)[C@H]12
IC50 (HepG2 [10]): 8 µM
IC50 (MCF7 [11]): 44.6 µM

COC(=O)C(CO)NC(=O)[C@]12CC[C@@H](C)[C@@](C)(O)[C@H]1C1=CC(=O)[C@@H]3[C@@]4(C)CC[C@H](OC(C)=O)[C@](C)(COC(C)=O)[C@@H]4CC[C@@]3(C)[C@]1(C)CC2 (stereo partly drawn)
IC50 (HepG2 [10]): 3.41 µM
IC50 (A-375): 5.99 µM
IC50 (NCI-H446): 3.84 µM

COC(=O)[C@]12CC[C@@H](C)[C@H](C)[C@H]1C1=CC(=O)[C@@H]3[C@@]4(C)C(C#N)=C[C@@](C)(COS(C)(=O)=O)[C@@H]4CC[C@@]3(C)[C@]1(C)CC2
IC50 (HeLa [13]): 7.27 µM
IC50 (HT-29): 9.77 µM
IC50 (MCF7 [14]): 19.5 µM

CCOP(=O)(OCC)C(NC(=O)[C@]12CC[C@@H](C)[C@H](C)[C@H]1C1=CC[C@@H]3[C@@]4(C)C[C@@H](OC(C)=O)[C@H](OC(C)=O)[C@@](C)(COC(C)=O)[C@@H]4CC[C@@]3(C)[C@]1(C)CC2)c1ccccc1Cl (stereo partly drawn)
IC50 (A549 [6]): 14.9 µM
IC50 (T-24): 6.59 µM
IC50 [7]: 15 µM
IC50 (HUVEC): > 100 µM

C[C@@H]1CC[C@]2(C(=O)OCC(=O)N/N=C/c3ccc([N+](=O)[O-])cc3)CC[C@]3(C)C(=CC(=O)[C@@H]4[C@@]5(C)CC[C@H](O)[C@](C)(CO)[C@@H]5CC[C@]43C)[C@@H]2[C@]1(C)O
IC50 (SGC-7901): 15.4 µM
IC50 (HepG2 [8]): 8.74 µM
IC50 (HeLa [9]): 18.8 µM

C[C@@H]1O[C@@H](O[C@H]2CC[C@@]3(C)[C@@H](CC[C@]4(C)[C@@H]3CC=C3[C@H]5CC(C)(C)CC[C@]5(C(=O)O)CC[C@]34C)[C@]2(C)CO)[C@H](O)[C@H](O)[C@H]1O[C@@H]1OC[C@H](O)[C@H](O)[C@H]1O
IC50 (MCF7 [4]): 42.1 µM
IC50 (A549 [5]): 17.3 µM

COC(=O)C1CCCN1C(=O)[C@]12CC[C@@H](C)[C@H](C)[C@H]1C1=CC[C@@H]3[C@@]4(C)C[C@@H](O)[C@H](O)[C@@](C)(CO)[C@@H]4CC[C@@]3(C)[C@]1(C)CC2 (stereo partly drawn)
IC50 (HeLa [3]): 21.3 µM

C[C@@H]1CC[C@]2(C(=O)NC(Cc3c[nH]c4ccccc34)C(=O)O)CC[C@]3(C)C(=CC(=O)[C@@H]4[C@@]5(C)CC[C@H](O)[C@](C)(CO)[C@@H]5CC[C@]43C)[C@@H]2[C@]1(C)O (stereo partly drawn)
IC50 (HepG2 [10]): 6.11 µM
IC50 (A-375): 8.03 µM
IC50 (NCI-H446): 11.3 µM

CC(=O)O[C@H]1CC[C@]2(C)[C@H]3CC=C4[C@@H]5[C@@H](C)[C@H](C)CC[C@]5(C(=O)NCCCCC(C)N)CC[C@@]4(C)[C@]3(C)CC[C@H]2C1(C)C (stereo partly drawn)
IC50 (HepG2 [10]): 5 µM
IC50 (MCF7 [11]): 4.8 µM

C[C@@H]1O[C@@H](O[C@@H]2[C@@H](O)[C@H](O[C@H]3CC[C@@]4(C)[C@@H](CC[C@]5(C)[C@@H]4CC=C4[C@H]6CC(C)(C)CC[C@]6(C(=O)O)CC[C@]45C)[C@]3(C)CO)OC[C@@H]2O[C@H]2O[C@H](CO)[C@@H](O)[C@H](O)[C@@H]2O)[C@H](O)[C@@H](O)[C@H]1O
IC50 (MCF7 [4]): > 50 µM
IC50 (A549 [5]): 19.6 µM

CCCC(=O)OC[C@]1(C)C=C(C=O)[C@@]2(C)[C@H]1CC[C@]1(C)[C@@H]2C(=O)C=C2[C@@H]3[C@@H](C)[C@H](C)CC[C@]3(C(=O)OC)CC[C@]21C
IC50 (HeLa [13]): 0.49 µM
IC50 (HT-29): 0.77 µM
IC50 (MCF7 [14]): 0.88 µM

C[C@@H]1O[C@@H](O[C@H]2CC[C@@]3(C)[C@@H](CC[C@]4(C)[C@@H]3CC=C3[C@H]5CC(C)(C)CC[C@]5(C(=O)O)CC[C@]34C)[C@]2(C)CO)[C@H](O)[C@H](O)[C@H]1O[C@@H]1O[C@H](CO)[C@@H](O)[C@H](O)[C@H]1O
IC50 (MCF7 [4]): 41.3 µM
IC50 (A549 [5]): 17.8 µM

CCOP(=O)(OCC)C(NC(=O)[C@]12CC[C@@H](C)[C@H](C)[C@H]1C1=CC[C@@H]3[C@@]4(C)C[C@@H](OC(C)=O)[C@H](OC(C)=O)[C@@](C)(COC(C)=O)[C@@H]4CC[C@@]3(C)[C@]1(C)CC2)c1cccc2ccccc12 (stereo partly drawn)
IC50 (A549 [6]): 54.8 µM
IC50 (T-24): 43.8 µM
IC50 [7]: 46.1 µM
IC50 (HUVEC): > 100 µM

COc1ccc(/C=N/NC(=O)COC(=O)[C@]23CC[C@@H](C)[C@@](C)(O)[C@H]2C2=CC(=O)[C@@H]4[C@@]5(C)CC[C@H](O)[C@](C)(CO)[C@@H]5CC[C@@]4(C)[C@]2(C)CC3)cc1
IC50 (SGC-7901): 11.3 µM
IC50 (HepG2 [8]): 4.16 µM
IC50 (HeLa [9]): 8.54 µM

COC(=O)[C@]12CCC(C)(C)C[C@H]1[C@H]1C(=O)C=C3[C@@]4(C)C=C(C#N)C(=O)C(C)(C)[C@@H]4CC[C@@]3(C)[C@]1(C)CC2 [BARDOXOLONE METHYL]
IC50 (RAW264.7): 4 µM

O=c1[nH]cc(F)c(=O)[nH]1 [FLUOROURACIL]
IC50 (A549 [6]): 34.5 µM
IC50 (T-24): 40.1 µM
IC50 [7]: 44.3 µM
IC50 (HUVEC): 56 µM
